One data set has as its system T47D. As to the kind of experiment: Cytotoxicity of EP probes via CTG assay. Type of data set: cell-based. The conditions noted are these: 72 hr.
A further data set deals with SUM-149. As to the kind of experiment: Cytotoxicity of EP probes via CTG assay. Type of data set: cell-based, human.
Data set [1] relates to MDA-MB-231, SUM-149, T47D. In words: Cytotoxicity of EP analogues via CTG assay, comparison across cell lines. The conditions noted are these: 72 hr. The protocol: To better understand the structure-activity-relationship of EP, its core was modified at the C3 position of the steroid backbone. […] Both normal cell lines HMEC and BJ cells were also evaluated to determine therapeutic index.
(§1) Either 1×10^3-4.8×10^3 or 4×10^2-1.2×10^3 cells were seeded to each well of 96- or 384-well white polystyrene flat-bottomed plates (3610 or 8804BC, Corning) in 100 μL or 30 μL media per well, respectively. The concentrations used were experimentally determined to ensure logarithmic growth during the duration of the experiment and prevent adverse effects on cell growth by DMSO exposure. The plates were incubated at 37° C. in 5% CO2 for 24 h before treatment. Stock solutions of test compounds (10 mM in DMSO) in nine 3-fold serial dilutions were dispensed via pintool (Biomek). The final concentration of DMSO was 0.3% (v/v) in each well. The plates were incubated for 72 h at 37° C. in 5% CO2 and then quenched with CellTiter-Glo® reagent (50 μL/well in 96-well plate, 30 μL/well in 384-well plate) at RT. The positive controls included staurosporine (10 μM), gambogic acid (10 μM), and a toxic quinoline generated in-house. Plates were then incubated at RT for 20 min and centrifuged at 1000 rpm for 1 min. The cytotoxicity assay was performed by using the CellTiterGlo Luminescent Cell Viability Assay kit (G7570, Promega, Madison, WI) according to the manufacturer's instructions. Luminescence was recorded in an Envision plate reader (Perkin Elmer).

Another data set deals with HMEC. As to the kind of experiment: Cytotoxicity of EP probes via CTG assay, normal cells. The conditions noted are these: 72 hr. The class given is cell-based.
The next data set concerns MDA-MB-231. As to the kind of experiment: Cytotoxicity of EP probes via CTG assay. The class given is cell-based, human. The following applies: read-out: MDA-MB231 EC50.
A further data set is described as follows: Solubility observations. The class given is physicochemical. The following applies: DMSO. Here is the method:
One of the liabilities with EP is sharing its core with cholesterol, an amphipathic molecule with part-water soluble, part-water insoluble character. Thus, while able to readily cross the cell membrane, the ability to deliver the pure compound faces challenges. EP's solubility properties are poor in DMSO or water unless warmed up to 30° C. However, in this report, EP's derivative, EP sulfonamide, was soluble at 10 mM in DMSO. Thus, the generation of a selective anti-cancer compound with greater potency than EP, and ample therapeutic window when compared to BJ normal cells, was accomplished.

Another data set deals with BJ cells. As to the kind of experiment: Cell viability assay in normal fibroblasts. The following applies: at the concentrations tested. Here is the method:
The compounds' activity was also evaluated in human and murine leukemia (KOPN8, BCR-ABL, UoCB-1, SUP-B15, NALM06) cell lines. As a control, normal human skin fibroblasts (BJ) cells and non-cancerous mammary epithelial cells (MCF10A) were used.
Different concentrations of GLE-extracted bioactive chemical components were tested for 72-h treatment periods.
as §1, with “The cytotoxicity assay was performed by using the CellTiterGlo Luminescent Cell Viability Assay kit (G7570, Promega, Madison, WI) according to the manufacturer's instructions.” left out
For the CTG assay, 3 or 4 replicate assays were conducted for each experimental condition, and a minimum of 3 independent experiments were conducted for cellular assays. The mean luminescence of each experimental treatment group was normalized as a percentage of the mean intensity of untreated controls. EC50 values (μM) were calculated by Pipeline Pilot Software (Accelrys, Enterprise Platform, CA, USA). EC50 values (μM) from the viability assay were calculated from dose response curve-fitting via non-linear regression by using GraphPad Prism (Version 7.0 San Diego, CA). […]

The next data set concerns SUM-149 cells. As to the kind of experiment: Cell viability assay (CellTiter-Glo or PI staining). Type of data set: cell-based, human.
For data set [2], the system named is various breast cancer cell lines. In words: Cell viability assay, breast cancer cell line panel. Type of data set: cell-based.
[3] abbreviates: Homo sapiens, MDA-MB-231, 72 hr.

Here are results for 16 compounds from patent publication US12263177B2, “Biologically active ganoderma lucidum compounds and synthesis of anticancer derivatives; ergosterol peroxide probes for cellular localization” (priority 2019, dated 2025).

Read-outs that look alike come from different tables or passages of the source.

As to `CC(C)C(C)C=CC(C)C1CCC2C1(C)CCC1C23C=CC2(CC(=O)CCC12C)OO3` (stereo not shown) [3a], the concentration for a half-maximal effect (EC50) is 10 µM in the data set with T47D; 5 µM in the data set on SUM-149 (72 hr, read-out: SUM149 EC50); above 13 µM with HMEC; 7 µM in the data set on MDA-MB-231 (72 hr). For the same compound, the “cytotoxicity compared with parental compound 3 (in words)” value in data set [1] is given as “improved activity”.
For the compound `CC(C)C(C)C=CC(C)C1CCC2C1(C)CCC1C23C=CC2(CC(OC(=O)CCl)CCC12C)OO3` (stereo not shown) [3c], the EC50 in the data set with T47D is above 20 µM; in the data set with SUM-149 (72 hr, read-out: SUM149 EC50), 5 µM; in the data set on HMEC it was above 20 µM; in the data set with MDA-MB-231 (72 hr), above 20 µM. In data set [1], the “cytotoxicity compared with parental compound 3 (in words)” value was “promising activity against SUM-149 with little or no activity observed at the tested concentrations in MDA-MB-231 and T47D”.
On to `CC(C)C(C)C=CC(C)C1CCC2C1(C)CCC1C23C=CC2(CC(OC(=O)CN=[N+]=[N-])CCC12C)OO3` (stereo not shown) [3d], for which the EC50 in the data set on T47D is above 20 µM; with SUM-149 (72 hr, read-out: SUM149 EC50), 10 µM; in the data set with HMEC it was above 20 µM; with MDA-MB-231 (72 hr), above 20 µM. Besides, in data set [1], the “cytotoxicity compared with parental compound 3 (in words)” value is “promising activity against SUM-149 with little or no activity observed at the tested concentrations in MDA-MB-231 and T47D”.
As to `C#CCOC1CCC2(C)C3CCC4(C)C(C(C)C=CC(C)C(C)C)CCC4C34C=CC2(C1)OO4` (stereo not shown) [3e], the EC50 with T47D was above 20 µM; with SUM-149 (72 hr, read-out: SUM149 EC50), 10 µM; in the data set on HMEC, above 20 µM; in the data set on MDA-MB-231 (72 hr), 16 µM. Further, the “cytotoxicity compared with parental compound 3 (in words)” value in [1] is reported as “better activity”.
Take `CCOP(=O)(COC1CCC2(C)C3CCC4(C)C(C(C)C=CC(C)C(C)C)CCC4C34C=CC2(C1)OO4)OCC` (stereo not shown) [3f]: the EC50 in the data set on T47D was above 20 µM; with SUM-149 (72 hr, read-out: SUM149 EC50) it was 5 µM; with HMEC, above 20 µM; in the data set on MDA-MB-231 (72 hr), 9 µM. Besides, in data set [1], the “cytotoxicity compared with parental compound 3 (in words)” value was “improved activity”.
For `CC(C)C(C)C=CC(C)C1CCC2C1(C)CCC1C23C=CC2(CC(OCP(=O)(O)O)CCC12C)OO3` (stereo not shown) [3g], the EC50 was above 20 µM in the data set on T47D; 5 µM with SUM-149 (72 hr, read-out: SUM149 EC50); above 20 µM in the data set with HMEC; 37 µM with MDA-MB-231 (72 hr). Also, the “cytotoxicity compared with parental compound 3 (in words)” value in [1] is given as “poor activity”.
Take `CC(C)C(C)C=CC(C)C1CCC2C1(C)CCC1C23C=CC2(CC(OP(=O)([O-])OCC[N+](C)(C)C)CCC12C)OO3` (stereo not shown) [3h]: the EC50 in the data set on T47D is 17 µM; in the data set on SUM-149 (72 hr, read-out: SUM149 EC50), 21 µM; in the data set with HMEC, above 20 µM; in the data set on MDA-MB-231 (72 hr), 25 µM. In addition, the “cytotoxicity compared with parental compound 3 (in words)” value in data set [1] was “poor activity”.
Taken in the same sequence, the figures for `CC(C)C(C)C=CC(C)C1CCC2C1(C)CCC1C23C=CC2(CC(OC(=O)CCCC(=O)O)CCC12C)OO3` (stereo not shown) [3i] were 18 µM, 5 µM, above 20 µM, 33 µM and “poor activity”.
Taken in the same sequence, the figures for `C#CCCCC(=O)OC1CCC2(C)C3CCC4(C)C(C(C)C=CC(C)C(C)C)CCC4C34C=CC2(C1)OO4` (stereo not shown) [3j] were 11 µM, 4 µM, above 13 µM, 8 µM and “superior activity across cell lines”.
As to `CC(C)C(C)C=CC(C)C1CCC2C1(C)CCC1C23C=CC2(CC(OC(=O)Cn4cc(CNC(=O)c5ccc6c(c5)C(=O)OC65c6ccc(N(C)C)cc6Oc6cc(N(C)C)ccc65)nn4)CCC12C)OO3` (stereo not shown) [3l], the half-maximal effective concentration (EC50) with T47D is above 20 µM; with SUM-149 (72 hr, read-out: SUM149 EC50), 18 µM; with HMEC, above 20 µM; in the data set with MDA-MB-231 (72 hr) it was 20 µM. Further, the “solubility properties (in words)” value in the data set “Solubility observations” (water or PBS) is “poor solubility properties and precipitated readily in DMSO or PBS”.
As to `CCCCCOC(=O)Nc1nc(=O)n([C@@H]2O[C@H](C)[C@@H](O)[C@H]2O)cc1F` [Capecitabin, reference compound], the EC50 was determined as 5 µM in the data set with SUM-149 (72 hr, read-out: SUM149 EC50); 10 µM in the data set with HMEC; 5 µM with MDA-MB-231 (72 hr).
Consider `COc1cccc2c1C(=O)c1c(O)c3c(c(O)c1C2=O)C[C@@](O)(C(=O)CO)C[C@@H]3O[C@H]1C[C@H](N)[C@H](O)[C@H](C)O1` [Doxorubicin, reference compound], for which the concentration for a half-maximal effect (EC50) in the data set with SUM-149 (Homo sapiens, SUM149, 72 hr) is 1 µM; with HMEC (Homo sapiens, HMEC), above 10 µM; in the data set with MDA-MB-231 (setting [3]) it was 1 µM.
On to `CC(C)C(C)C=CC(C)C1CCC2C1(C)CCC1C23C=CC2(CC(OC(=O)NS(=O)(=O)c4ccccc4)CCC12C)OO3` (stereo not shown) [EP sulfonamide, ergosterol peroxide sulfonamide], for which the “solubility in DMSO” value in “Solubility observations” is reported as at least 10 mM. Moreover, in the data set on BJ cells, the “cytotoxic effects in normal BJ cells” value is “minimal”. Further, the EC50 in the data set with SUM-149 cells (FIG. 10A, SUM-149 breast cancer cells, read-out: EC50, cancer cell viability of derivative) amounted to 12 µM.
Turning to `CC(=O)O[C@H]1C(=O)[C@@]2(C)[C@H]([C@H](OC(=O)c3ccccc3)[C@]3(O)C[C@H](OC(=O)[C@H](O)[C@@H](NC(=O)c4ccccc4)c4ccccc4)C(C)=C1C3(C)C)[C@]1(OC(C)=O)CO[C@@H]1C[C@@H]2O` [Taxol, reference compound], the concentration for a half-maximal effect (EC50) with SUM-149 (Homo sapiens, SUM149, 72 hr) is 0.01 µM; with HMEC (Homo sapiens, HMEC), above 10 µM; in the data set on MDA-MB-231 (setting [3]), 2 µM.
For `CC(C)[C@@H](C)/C=C/[C@@H](C)[C@H]1CC[C@H]2C3=CC=C4C[C@@H](O)CC[C@]4(C)[C@H]3CC[C@]12C` [ergosterol], in the data set with BJ cells, the “cytotoxic effects in normal BJ cells” value was “did not induce cytotoxic effects”. In data set [2] (72-h treatment), this compound yielded an EC50 above 50 µM. Also, in data set [2] (breast cancer cellular models, 72-h), the “cancer cell viability significantly reduced starting at” value was 64 µM. Also, the “concentration at which SUM-149 cell viability is significantly reduced” value in the data set with SUM-149 cells (72 h) came to 64 µM.
As for `CCCCCCCCCCCCCCCC(=O)O` [palmitic acid], in data set [2], the “activity at the tested concentrations in the evaluated cell lines” value is given as “did not show activity”.

Usually EC50 stands for the concentration needed to bring the measured effect to its halfway point.
